Experimental data reported in patent publication US20240425478A1, “CYCLOPENTYLPYRAZOLE CDK2 INHIBITORS” (Genentech, Inc., priority 2021, published 2024).
Where two headings read alike, the source gives them in different places.

Assays:
[1] = molecular target: T1, Cyclin Dependent Kinase 2/Cyclin E1 (CDK2-cycE1) (Homo sapiens, UniProt P24941); experiment: CDK2-cycE1 TR-FRET (LANCE) enzyme assay; type: biochemical; settings: for FS CDK1/CDK2 / FS CDK4/CDK2: fold selectivity; for FS CDK1/CDK2: enzymatic CDK1 Ki over CDK2 Ki; for FS CDK4/CDK2: enzymatic CDK4 Ki over CDK2 Ki
T1 construct: purchased ProQinase 0050-0055-1
Summary of the method: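 Compound dose responses pre-incubated 30 min with CDK2-cycE1 in 50 mM HEPES pH 7.5, 10 mM MgCl2, 2 mM TCEP, 0.05% BGG, 0.01% Brij 35. Reaction quenched with EDTA (15 mM final), phospho-MBP detected by Eu-anti-phospho-MBP TR-FRET (acceptor/donor ratio). Inhibition constants from Morrison equation.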

HCT116 cells = experiment: p-H3 HCT-116 mitotic release cell proliferation assay (cellular CDK1); type: cell-based; settings: Homo sapiens, HCT-116; Table O, cellular assay; read-out: CDK1 p-H3 IC50
Summary of the method: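 HCT116 cells arrested 16 h with 500 nM nocodazole, then exposed to compound for 4 h at 37 °C (0.1% DMSO). Lysates read by HTRF/FRET with donor and acceptor phospho-Histone H3 (Ser10) antibodies, ≥2 h at room temperature; CDK1 inhibition seen as loss of p-H3 on mitotic release.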

SKOV-3 (ATCC HTB-77) = experiment: SKOV-3 EdU incorporation cell proliferation assay (CDK4/6-dependent); type: cell-based; settings: Homo sapiens, SK-OV-3, Table O, cellular assay; read-out: CDK4/6 SKOV-3 IC50
Summary of the method: (§1)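 Cells in RPMI/10% FBS dosed with compound (0.5% DMSO final) for 16 h at 37 °C, 5% CO2, then EdU 0.5 μM final for 8 h before fixation and imaging. IC50 from 4-parameter logistic fit of EdU-positive cell fraction versus dose.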

[2] = molecular target: T2, Cyclin Dependent Kinase 4/Cyclin D3 (CDK4-cycD3) (Homo sapiens, UniProt P11802); experiment: CDK4-cycD3 TR-FRET (LANCE) enzyme assay; type: biochemical; settings: Table O, enzymatic assay
T2 construct: purchased Carna Biosciences 04-105
T2 sequence (P11802 whole entry): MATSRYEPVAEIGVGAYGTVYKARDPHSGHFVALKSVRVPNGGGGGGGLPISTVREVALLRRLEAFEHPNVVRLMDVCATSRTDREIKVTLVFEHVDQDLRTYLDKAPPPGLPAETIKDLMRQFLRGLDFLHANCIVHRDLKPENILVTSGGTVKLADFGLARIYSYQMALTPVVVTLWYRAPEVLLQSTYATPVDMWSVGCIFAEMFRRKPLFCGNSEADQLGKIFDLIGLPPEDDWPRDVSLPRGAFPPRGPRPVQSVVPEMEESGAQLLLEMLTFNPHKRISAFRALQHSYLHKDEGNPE
T2 sequence (P30281 whole entry partner): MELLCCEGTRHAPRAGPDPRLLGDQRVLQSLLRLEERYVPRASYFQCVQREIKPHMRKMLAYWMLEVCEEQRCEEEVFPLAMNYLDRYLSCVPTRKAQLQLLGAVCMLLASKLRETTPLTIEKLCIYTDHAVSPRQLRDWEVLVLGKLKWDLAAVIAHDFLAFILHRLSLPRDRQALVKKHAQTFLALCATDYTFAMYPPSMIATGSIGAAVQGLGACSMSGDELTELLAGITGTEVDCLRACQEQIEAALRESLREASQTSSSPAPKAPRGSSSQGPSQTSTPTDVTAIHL
Summary of the method: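 Compound dose responses pre-incubated 30 min with enzyme mix in 50 mM HEPES pH 7.5, 10 mM MgCl2, 2 mM TCEP, 0.05% BGG, 0.01% Brij 35. Reaction quenched with EDTA (15 mM final); Eu-anti-phospho-4E-BP1 TR-FRET detection, acceptor/donor ratio. Ki derived by Morrison equation.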

[3] = system: OVISE (JCRB1043, CCNE1-amplified); experiment: OVISE EdU incorporation cell proliferation assay (CDK2-dependent); type: cell-based; settings: Table O; for IC50: cellular assay, read-out: CDK2 OVISE IC50; for FS SKOV-3/OVISE / FS p-H3/OVISE: fold selectivity; for FS SKOV-3/OVISE: cellular SKOV-3 IC50 over OVISE IC50; for FS p-H3/OVISE: cellular p-H3 IC50 over OVISE IC50
Summary of the method: as §1

[4] = molecular target: T3, Cyclin Dependent Kinase 1/Cyclin A2 (CDK1-cycA2) (Homo sapiens, UniProt P06493); experiment: CDK1-cycA2 TR-FRET (Lance) enzyme assay; type: biochemical; settings: Table O, enzymatic assay
T3 construct: purchased ProQinase 0134-0054-1
T3 sequence (P06493 whole entry): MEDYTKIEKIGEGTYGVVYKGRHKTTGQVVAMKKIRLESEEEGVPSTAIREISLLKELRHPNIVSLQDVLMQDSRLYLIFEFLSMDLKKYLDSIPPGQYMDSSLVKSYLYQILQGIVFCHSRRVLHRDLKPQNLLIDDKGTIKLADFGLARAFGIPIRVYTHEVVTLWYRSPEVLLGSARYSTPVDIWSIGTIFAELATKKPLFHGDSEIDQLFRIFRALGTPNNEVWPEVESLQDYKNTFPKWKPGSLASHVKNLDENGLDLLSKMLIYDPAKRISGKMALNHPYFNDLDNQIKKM
T3 sequence (P20248 whole entry partner): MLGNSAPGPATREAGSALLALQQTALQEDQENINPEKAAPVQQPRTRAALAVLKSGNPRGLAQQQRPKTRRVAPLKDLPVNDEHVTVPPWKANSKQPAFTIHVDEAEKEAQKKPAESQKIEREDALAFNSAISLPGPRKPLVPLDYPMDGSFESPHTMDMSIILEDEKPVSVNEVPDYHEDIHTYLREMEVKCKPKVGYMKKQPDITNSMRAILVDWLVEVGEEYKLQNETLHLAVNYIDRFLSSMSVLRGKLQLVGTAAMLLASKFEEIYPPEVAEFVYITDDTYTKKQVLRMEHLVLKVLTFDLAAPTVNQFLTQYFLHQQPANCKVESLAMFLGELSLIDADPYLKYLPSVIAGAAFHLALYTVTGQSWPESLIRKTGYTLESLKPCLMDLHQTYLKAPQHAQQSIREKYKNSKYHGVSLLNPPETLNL
Summary of the method: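 Human CDK1/cyclin A2 pre-incubated 30 min with compound dose responses in 50 mM HEPES pH 7.5, 10 mM MgCl2, 2 mM TCEP, 0.05% BGG, 0.01% Brij 35. Reaction quenched with EDTA (15 mM final); TR-FRET readout using Eu-anti-phospho-4E-BP1, acceptor/donor ratio. Inhibition constants from Morrison equation.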

[5] = Table O, enzymatic assay, read-out: CDK2 Ki

Ki [1, 5] | FS CDK1/CDK2 ([1]; Table O) | FS CDK4/CDK2 ([1]; Table O) | IC50 (HCT116 cells) | IC50 (SKOV-3 (ATCC HTB-77)) | Ki [2] | Ki [4] | Ki ([1]; read-out: CDK2 activity / potency (enzymatic assay)) | SMILES | IC50 [3] | FS SKOV-3/OVISE [3] | FS p-H3/OVISE [3]
0.0029 µM | 33 | 162 | 0.31 µM | 16 µM | 0.47 µM | 0.095 µM | – | Cc1nc(S(C)(=O)=O)ccc1Nc1cc([C@H]2CC[C@@H](OC(=O)NC(C)(C)C)C2)[nH]n1 [Example 4L, (1R,3S)-3-(3-((2-methyl-6-(methylsulfonyl)pyridin-3-yl)amino)-1H-pyrazol-5-yl)cyclopentyl tert-butylcarbamate] | 0.31 µM | 52 | 1
0.0003 µM | 31 | 433 | 0.15 µM | 5.3 µM | 0.13 µM | 0.0094 µM | – | Cn1nc(Nc2cc([C@H]3CC[C@@H](OC(=O)NC(C)(C)C(F)F)C3)[nH]n2)ccc1=O [Example 5C, (1R,3S)-3-(3-((1-methyl-6-oxo-1,6-dihydropyridazin-3-yl)amino)-1H-pyrazol-5-yl)cyclopentyl (1,1-difluoro-2-methylpropan-2-yl)carbamate] | 0.063 µM | 84 | 2.4
< 0.0001 µM | >33 | >320 | 0.023 µM | 1.3 µM | 0.02 µM | 0.021 µM | ≤ 0.001 µM | Cn1nc(Nc2cc([C@H]3CC[C@@H](OC(=O)NC45CC(C4)C5)C3)[nH]n2)ccc1=O [Example 6, (1R,3S)-3-(5-((1-methyl-6-oxo-1,6-dihydropyridazin-3-yl)amino)-1H-pyrazol-3-yl)cyclopentyl bicyclo[1.1.1]pentan-1-ylcarbamate] | 0.016 µM | 81 | 1.4
< 0.0001 µM | >12 | >120 | 0.0087 µM | 0.39 µM | 0.0074 µM | 0.00078 µM | – | CN(C(=O)O[C@@H]1CC[C@H](c2cc(Nc3ccc(=O)n(C)n3)n[nH]2)C1)C(C)(C)C [Example 6B, (1R,3S)-3-(3-((1-methyl-6-oxo-1,6-dihydropyridazin-3-yl)amino)-1H-pyrazol-5-yl)cyclopentyl tert-butyl(methyl)carbamate] | 0.027 µM | 14 | 0.32
